Measured values: US20250152583A1, “AMILORIDE FOR USE IN THE TOPICAL TREATMENT OF SOMATOSENSORY IMPAIRMENTS” (ASSISTANCE PUBLIQUE - HOPITAUX DE PARIS, priority 2022, published 2025)

Experiments:
Type in all cases: in vivo, human
[1] = tested on: patient with peripheral sensory neuropathy of feet and hands with hypoesthesia and proprioceptive disorders; assay: Case report: amiloride cream on hypoesthetic areas, neuropathy induced by Ado-trastuzumab emtansine (T-DM1); settings: cream of amiloride 5%, applied locally to hypoesthetic areas twice a day
Text: A patient received Ado-trastuzumab emtansine (T-DM1), the first HER2-targeted antibody-drug conjugate to get the approval of the Food and Drug Administration (FDA), for the treatment of their metastatic HER2-positive breast cancer.
For more than 2 years, they had repeated falls due to loss of feeling in their feet, cuts on their hands, unnoticed burns, “splinters in the skin following their gardening activities” with infection in the aftermath because they had not realized it.
They complained of often dropping objects held in their hands and of no longer being able to sew due to the impossibility of holding a fine needle.
They were treated with a cream of amiloride 5% applied locally to the hypoesthetic areas twice a day.

[2] = tested on: patient with hypoesthesia and proprioceptive disorders; assay: Case report: amiloride cream on hypoesthetic areas, hypoesthesia and proprioceptive disorders after bortezomib; settings: cream of amiloride 10%, twice a day, after 1 month of use
Experimental: A patient suffered from hypoesthesia and proprioceptive disorders with difficulty gripping the foot on the ground, impression of walking on cotton and complained of the impression of having a permanently rolled sock under the feet in addition to a sensation of having edematous toes since they received a treatment with bortezomib in 2016 for treating their myeloma. They were treated with a cream of amiloride 10% applied locally to the hypoesthetic areas twice a day.

[3] = tested on: patient with hypoesthesia with lost sensations in feet and fingertips; assay: Case report: amiloride cream, hypoesthesia after oxaliplatine
Experimental: A patient suffering from colon cancer was treated for 4 months with oxaliplatine in December 2019. They developed hypoesthesia with lost sensations in feet and in the fingertips of both hands and complained of having the impression of a permanently “rolled sock” under the feet. They were treated with a cream of amiloride 10% applied twice a day during one month and they noticed an improvement in the feeling of the right foot “rolled sock” (4/10 vs 8/10 before this treatment), a little less on the left foot (6/10 vs 8/10).

[4] = tested on: patients with somatosensory impairments; assay: Summary statement: patients treated with a topical composition of amiloride

SMILES: NC(N)=NC(=O)c1nc(Cl)c(N)nc1N [amiloride, 3,5-diamino-6-chloro-N-(diaminomethylidene) pyrazine-2-carboxamide]
- sensation of hands and feet [1]: regained the sensation of their hands and feet
- impression of having a permanently rolled sock under the feet [2]: disappeared
- impression of walking on cotton [2]: disappeared
- sensation of edema of the toes [2]: has disappeared
- feeling of hot and cold on the soles of the feet ([2]; patient): feels better hot and cold on the soles of their feet
- sensation "rolled sock" ([3]; amiloride concentration in the cream increased to 15%): further decrease the sensation “rolled sock” even on the left foot
- sensitivity in the fingertips of both hands ([3]; cream of amiloride 10%, twice a day during one month): regained the sensitivity in the fingertips of both hands
- feeling of "rolled sock", left foot ([3]; cream of amiloride 10%, twice a day during one month, 8/10 before treatment): 6/10
- feeling of "rolled sock", right foot ([3]; cream of amiloride 10%, twice a day during one month, 8/10 before treatment, patient): 4/10
- sensations in insensitive body areas, proprioception and mechanical allodynia [4]: able to recover sensations in insensitive body areas and a correct proprioception and noted the disappearance of mechanical allodynia
